Where “and” joins values, the source holds several entries; their conditions need not be identical. Equal values may be shown once. Toxic doses and inconclusive results are not listed.
Tested on: L1210 leukemia ip in BDF1 mice, survival T/C
Test: NCI In Vivo Anticancer Drug Screen. Data for tumor model L1210 Leukemia (intraperitoneal) in B6D2F1 (BDF1) mice
Conditions: endpoint: mean survival time, higher = longer survival
Outline: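 Tumor cells were implanted, animals were treated, and survival was followed. The result divides the treated measurement by the vehicle-control measurement.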

[1] = dose: 100.0 mg/kg/injection, schedule: Q04DX003 (ip), vehicle: Klucel (hydroxypropylcellulose) (HPC)
[2] = dose: 200.0 mg/kg/injection, schedule: Q04DX003 (ip), vehicle: Klucel (hydroxypropylcellulose) (HPC)
[3] = dose: 400.0 mg/kg/injection, schedule: Q04DX003 (ip), vehicle: Klucel (hydroxypropylcellulose) (HPC)
[4] = dose: 100.0 mg/kg/injection, schedule: Q01DX001 (ip), vehicle: saline
[5] = dose: 200.0 mg/kg/injection, schedule: Q01DX001 (ip), vehicle: saline
[6] = dose: 400.0 mg/kg/injection, schedule: Q01DX001 (ip), vehicle: saline
[7] = dose: 100.0 mg/kg/injection, schedule: Q01DX009 (ip), vehicle: Klucel (hydroxypropylcellulose) (HPC)
[8] = dose: 200.0 mg/kg/injection, schedule: Q01DX009 (ip), vehicle: Klucel (hydroxypropylcellulose) (HPC)
[9] = dose: 400.0 mg/kg/injection, schedule: Q01DX009 (ip), vehicle: Klucel (hydroxypropylcellulose) (HPC)
[10] = dose: 100.0 mg/kg/injection, schedule: Q04DX003 (ip), vehicle: saline
[11] = dose: 200.0 mg/kg/injection, schedule: Q04DX003 (ip), vehicle: saline
[12] = dose: 50.0 mg/kg/injection, schedule: Q01DX001 (ip), vehicle: carboxymethylcellulose (CMC)
[13] = dose: 100.0 mg/kg/injection, schedule: Q01DX001 (ip), vehicle: carboxymethylcellulose (CMC)
[14] = dose: 200.0 mg/kg/injection, schedule: Q01DX001 (ip), vehicle: carboxymethylcellulose (CMC)
[15] = dose: 400.0 mg/kg/injection, schedule: Q01DX001 (ip), vehicle: carboxymethylcellulose (CMC)
[16] = dose: 100.0 mg/kg/injection, schedule: Q01DX001 (ip), vehicle: saline with Tween-80
[17] = dose: 200.0 mg/kg/injection, schedule: Q01DX001 (ip), vehicle: saline with Tween-80

For `C1CCC2[N-]CC3CCCCC3[N-]CC3CCCCC3[N-]CC3CCCCC3[N-]CC2C1.[Cu+2].[O-][Cl+3]([O-])([O-])O` (stereo unspecified), the T/C (dose: 12.5 mg/kg/injection, schedule: Q04DX002 (ip), vehicle: Klucel (hydroxypropylcellulose) (HPC)) was 111 % of control, the T/C (dose: 25.0 mg/kg/injection, schedule: Q04DX002 (ip), vehicle: Klucel (hydroxypropylcellulose) (HPC)) was 108 % of control and the T/C (dose: 50.0 mg/kg/injection, schedule: Q04DX002 (ip), vehicle: Klucel (hydroxypropylcellulose) (HPC)) was 108 % of control.

With `CCCCn1cccc1` the T/C (dose: 100.0 mg/kg/injection, schedule: Q04DX003 (ip), vehicle: saline with Tween-80) was 106 % of control and the T/C (dose: 200.0 mg/kg/injection, schedule: Q04DX003 (ip), vehicle: saline with Tween-80) was 95 % of control.

`O=C1OC(C(O)CO)C(=O)C1=O` (stereo unspecified) was tested, and the T/C (dose: 50.0 mg/kg/injection, schedule: Q01DX009 (ip), vehicle: saline with Tween-80) was 97 % of control, the T/C (dose: 100.0 mg/kg/injection, schedule: Q01DX001 (ip), vehicle: water) was 102 % of control and the T/C (dose: 100.0 mg/kg/injection, schedule: Q01DX009 (ip), vehicle: saline with Tween-80) was 97 % of control. For the same molecule, the T/C (dose: 100.0 mg/kg/injection, schedule: Q01DX009 (ip), vehicle: water) was 105 % of control, the T/C (dose: 100.0 mg/kg/injection, schedule: Q04DX003 (ip), vehicle: water) was 104 % of control and the T/C (dose: 200.0 mg/kg/injection, schedule: Q01DX001 (ip), vehicle: water) was 107 % of control. The T/C (dose: 200.0 mg/kg/injection, schedule: Q01DX009 (ip), vehicle: saline with Tween-80) was 101 % of control, the T/C (dose: 200.0 mg/kg/injection, schedule: Q01DX009 (ip), vehicle: water) was 106 % of control and the T/C (dose: 200.0 mg/kg/injection, schedule: Q04DX003 (ip), vehicle: water) was 109 % of control. For the same molecule, the T/C (dose: 400.0 mg/kg/injection, schedule: Q01DX001 (ip), vehicle: water) was 107 % of control, the T/C (dose: 400.0 mg/kg/injection, schedule: Q01DX009 (ip), vehicle: water) was 116 % of control and the T/C (dose: 400.0 mg/kg/injection, schedule: Q04DX003 (ip), vehicle: water) was 115 % of control. For the same molecule, the T/C (dose: 800.0 mg/kg/injection, schedule: Q01DX001 (ip), vehicle: water) was 102 % of control, the T/C (dose: 800.0 mg/kg/injection, schedule: Q01DX009 (ip), vehicle: water) was 111 % of control and the T/C (dose: 800.0 mg/kg/injection, schedule: Q04DX003 (ip), vehicle: water) was 121 % of control.

With `CN(C)N=Nc1ccc(C(=N)N)cc1` the T/C (dose: 100.0 mg/kg/injection, schedule: Q01DX001 (ip), vehicle: acid diluted with saline) was 105 % of control.

For `Cc1cccc(N/N=C2\CCSc3ccccc32)c1`, the T/C [1] was 95 % of control, the T/C [2] was 98 % of control and the T/C [3] was 104 % of control.

`CCCCN(C)/N=N/c1nn[nH]n1` was tested, and the T/C (dose: 100.0 mg/kg/injection, schedule: Q04DX002 (ip), vehicle: Klucel (hydroxypropylcellulose) (HPC)) was 92 % of control and the T/C (dose: 400.0 mg/kg/injection, schedule: Q04DX002 (ip), vehicle: Klucel (hydroxypropylcellulose) (HPC)) was 113 % of control.

In the case of `CCCCCCCCCCNC(=S)NNC(=O)CCCC(=O)NNC(=S)NCCCCCCCCCC`, the T/C (dose: 50.0 mg/kg/injection, schedule: Q01DX001 (ip), vehicle: saline) is reported as 96 % of control, the T/C [4] is reported as 96 % of control and the T/C [5] is reported as 90 % of control. The T/C [6] was 96 % of control.

For `c1c(NC2=NCCO2)cc2c3c1CCCN3CCC2`, the T/C (dose: 50.0 mg/kg/injection, schedule: Q01DX009 (ip), vehicle: saline) was 95 % of control.

In the case of `COc1cc(C=O)ccc1OC(=O)Nc1cccc(Cl)c1C`, the T/C [7] is reported as 97 % of control, the T/C [8] is reported as 97 % of control and the T/C [9] is reported as 103 % of control.

`C/C(=C(/SS/C(C(=O)O)=C(/C)c1cccc(O)c1)C(=O)O)c1cccc(O)c1` was tested, and the T/C [4] was 97 % of control, the T/C [5] was 97 % of control and the T/C [6] was 97 % of control.

For `Cn1ccc(CCl)n1`, the T/C [10] was 95 % of control and the T/C [11] was 97 % of control.

`O=C(O)C1(Nc2ccc(-c3ccc(Br)cc3)cc2)CCCC1` was tested, and the T/C [12] was 90 % of control, the T/C [13] was 90 % of control and the T/C [14] was 90 % of control. The T/C [15] was 90 % of control.

`OCC1OC(n2cnc3c(=S)nc(NO)[nH]c32)C(O)C1O` (stereo unspecified) was tested, and the T/C (dose: 12.5 mg/kg/injection, schedule: Q01DX005 (ip), vehicle: saline) was 165 % of control, the T/C (dose: 50.0 mg/kg/injection, schedule: Q01DX005 (ip), vehicle: saline) was 88 % of control and the T/C (dose: 100.0 mg/kg/injection, schedule: Q01DX005 (ip), vehicle: saline) was 107 % of control.

In the case of `c1ccc(ON=C2c3ccccc3-c3ccccc32)cc1`, the T/C [10] is reported as 102 % of control, the T/C [11] is reported as 96 % of control and the T/C (dose: 400.0 mg/kg/injection, schedule: Q04DX003 (ip), vehicle: saline) is reported as 89 % of control.

In the case of `CC(=O)NC1C(OCc2ccccc2)OC(COC(c2ccccc2)(c2ccccc2)c2ccccc2)C(N=[N+]=[N-])C1OCc1ccccc1` (stereo unspecified), the T/C [16] is reported as 86 % of control, the T/C [17] is reported as 86 % of control and the T/C (dose: 400.0 mg/kg/injection, schedule: Q01DX001 (ip), vehicle: saline with Tween-80) is reported as 102 % of control.

For `O=C1CC2CCC1C2Cl` (stereo unspecified), the T/C (dose: 50.0 mg/kg/injection, schedule: Q04DX003 (ip), vehicle: saline with Tween-80) was 86 % of control, the T/C [16] was 97 % of control and the T/C [17] was 89 % of control.

With `CNc1ccccc1[N+](=O)[O-]` the T/C [7] was 100 % of control, the T/C (dose: 100.0 mg/kg/injection, schedule: Q01DX009 (ip), vehicle: other) was 104 % of control and the T/C [1] was 96 % of control. The T/C (dose: 100.0 mg/kg/injection, schedule: Q04DX003 (ip), vehicle: other) was 107 % of control, the T/C [8] was 98 % of control and the T/C (dose: 200.0 mg/kg/injection, schedule: Q01DX009 (ip), vehicle: other) was 95 % of control. The T/C [2] was 95 % of control, the T/C (dose: 200.0 mg/kg/injection, schedule: Q04DX003 (ip), vehicle: other) was 97 % of control and the T/C [9] was 104 % of control. The T/C (dose: 400.0 mg/kg/injection, schedule: Q01DX009 (ip), vehicle: other) was 95 % of control, the T/C [3] was 98 % of control and the T/C (dose: 400.0 mg/kg/injection, schedule: Q04DX003 (ip), vehicle: other) was 113 % of control.

With `CN(/N=N/N(C)c1ccccc1)c1ccccc1` the T/C (dose: 6.3 mg/kg/injection, schedule: Q01DX Z (sc), vehicle: carboxymethylcellulose (CMC)) was 102 % of control, the T/C (dose: 12.5 mg/kg/injection, schedule: Q01DX Z (sc), vehicle: carboxymethylcellulose (CMC)) was 113 % of control and the T/C (dose: 25.0 mg/kg/injection, schedule: Q01DX Z (sc), vehicle: carboxymethylcellulose (CMC)) was 105 % of control and 106 % of control. For the same molecule, the T/C (dose: 50.0 mg/kg/injection, schedule: Q01DX Z (sc), vehicle: carboxymethylcellulose (CMC)) was 102 % of control, the T/C [13] was 102 % of control and the T/C (dose: 100.0 mg/kg/injection, schedule: Q01DX Z (sc), vehicle: carboxymethylcellulose (CMC)) was 104 % of control. The T/C (dose: 150.0 mg/kg/injection, schedule: Q01DX Z (sc), vehicle: carboxymethylcellulose (CMC)) was 91 % of control, the T/C [14] was 102 % of control and the T/C (dose: 300.0 mg/kg/injection, schedule: Q01DX Z (sc), vehicle: carboxymethylcellulose (CMC)) was 100 % of control. The T/C [15] was 98 % of control.

In the case of `COc1cc([N+](=O)[O-])c2nc(C)ccc2c1[N+](=O)[O-]`, the T/C [12] is reported as 100 % of control, the T/C [13] is reported as 100 % of control and the T/C [14] is reported as 100 % of control. The T/C [15] was 100 % of control.

For `CC[CH](C)[Hg][c]1cccc2ccccc12` (stereo unspecified), the T/C (dose: 25.0 mg/kg/injection, schedule: Q01DX009 (ip), vehicle: Klucel (hydroxypropylcellulose) (HPC)) was 96 % of control, the T/C (dose: 50.0 mg/kg/injection, schedule: Q01DX009 (ip), vehicle: Klucel (hydroxypropylcellulose) (HPC)) was 97 % of control and the T/C [7] was 97 % of control and 100 % of control. The T/C [1] was 100 % of control, the T/C [2] was 97 % of control and the T/C [3] was 96 % of control.

`CC(C)CC(C)NCCOC(=O)c1ccc(N)cc1` (stereo unspecified) was tested, and the T/C (dose: 9.38 mg/kg/injection, schedule: Q01DX001 (ip), vehicle: other) was 104 % of control, the T/C (dose: 18.75 mg/kg/injection, schedule: Q01DX001 (ip), vehicle: other) was 96 % of control and the T/C (dose: 37.5 mg/kg/injection, schedule: Q01DX001 (ip), vehicle: other) was 106 % of control. The T/C (dose: 75.0 mg/kg/injection, schedule: Q01DX001 (ip), vehicle: carboxymethylcellulose (CMC)) was 96 % of control.

— PubChem BioAssay AID248 (DTP/NCI, 2004)
